Experimental data as given in article PMC5218480 (PLoS ONE, 2017).

Tested on: MV-4-11 cells
Experiment: Gene expression microarray analysis (Affymetrix PrimeView) and GSEA
Format: cell-based, human
Parameters: RFU PODN (11730768_x_at) / Fold change /veh PODN (11730768_x_at) / RFU LINC00158 (11744669_a_at) / Fold change /veh LINC00158 (11744669_a_at) / RFU DUSP10 (11751237_a_at) / Fold change /veh DUSP10 (11751237_a_at) / RFU ID3 (11757404_x_at) / Fold change /veh ID3 (11757404_x_at) / RFU PLEKHG5 (11737974_s_at) / Fold change /veh PLEKHG5 (11737974_s_at) / RFU LRRC4B (11730491_at) / Fold change /veh LRRC4B (11730491_at) / RFU GIMAP4 (11747438_a_at) / Fold change /veh GIMAP4 (11747438_a_at) / RFU KRT8 (11758183_x_at) / Fold change /veh KRT8 (11758183_x_at) / RFU CNN1 (11734310_a_at) / Fold change /veh CNN1 (11734310_a_at) / RFU VPS37D (11726825_at) / Fold change /veh VPS37D (11726825_at) / RFU C10orf10 (11716522_x_at) / Fold change /veh C10orf10 (11716522_x_at) / RFU KIR2DL2 /// KIR2DL4 /// KIR2DL5A /// KIR2DL5B /// KIR2DS1 /// KIR2DS2 /// KIR2DS3 /// KIR2DS4 /// KIR3DL3 /// KIR3DL3 /// KIR3DS1 (11738374_at) / Fold change /veh KIR2DL2 /// KIR2DL4 /// KIR2DL5A /// KIR2DL5B /// KIR2DS1 /// KIR2DS2 /// KIR2DS3 /// KIR2DS4 /// KIR3DL3 /// KIR3DL3 /// KIR3DS1 (11738374_at) / RFU C1QL1 (11718748_at) / Fold change /veh C1QL1 (11718748_at) / RFU TMPRSS4 (11747572_a_at) / Fold change /veh TMPRSS4 (11747572_a_at) / RFU HAMP (11756126_x_at) / Fold change /veh HAMP (11756126_x_at) / RFU RNFT2 (11725882_a_at) / Fold change /veh RNFT2 (11725882_a_at) / RFU NR4A2 (11747474_a_at) / Fold change /veh NR4A2 (11747474_a_at) / RFU ABCC12 (11746883_a_at) / Fold change /veh ABCC12 (11746883_a_at) / RFU TMEM136 (11760407_x_at) / Fold change /veh TMEM136 (11760407_x_at) / RFU CLDN22 /// WWC2 (11732394_at) / Fold change /veh CLDN22 /// WWC2 (11732394_at) / RFU HLA-DPB1 (11760878_x_at) / Fold change /veh HLA-DPB1 (11760878_x_at) / RFU SPINT1 (11716480_a_at) / Fold change /veh SPINT1 (11716480_a_at) / RFU GAP43 (11754022_s_at) / Fold change /veh GAP43 (11754022_s_at) / RFU A4GNT (11735810_at) / Fold change /veh A4GNT (11735810_at) / RFU PRB3 (11715151_x_at) / Fold change /veh PRB3 (11715151_x_at) / RFU TUBB4B (11761932_at) / Fold change /veh TUBB4B (11761932_at) / RFU CAPN14 (11732068_a_at) / Fold change /veh CAPN14 (11732068_a_at) / RFU TMCC2 (11721928_a_at) / Fold change /veh TMCC2 (11721928_a_at) / RFU IRGQ (11745062_a_at) / Fold change /veh IRGQ (11745062_a_at) / RFU FAM174B (11720279_a_at) / Fold change /veh FAM174B (11720279_a_at) / RFU TMPRSS4 (11748680_a_at) / Fold change /veh TMPRSS4 (11748680_a_at) / RFU FAM212B (11763350_a_at) / Fold change /veh FAM212B (11763350_a_at) / RFU PLEKHG5 (11743358_a_at) / Fold change /veh PLEKHG5 (11743358_a_at) / RFU ZSCAN30 (11745921_a_at) / Fold change /veh ZSCAN30 (11745921_a_at) / RFU CMKLR1 (11741424_a_at) / Fold change /veh CMKLR1 (11741424_a_at) / RFU LOC101060620 /// MAPK8IP1 (11723275_at) / Fold change /veh LOC101060620 /// MAPK8IP1 (11723275_at) / RFU SPTSSB (11747773_x_at) / Fold change /veh SPTSSB (11747773_x_at) / RFU PRSS12 (11739890_at) / Fold change /veh PRSS12 (11739890_at) / RFU BIN1 (11741810_x_at) / Fold change /veh BIN1 (11741810_x_at) / RFU WNT11 (11732464_a_at) / Fold change /veh WNT11 (11732464_a_at) / RFU C10orf10 (11716521_a_at) / Fold change /veh C10orf10 (11716521_a_at) / RFU C5orf56 (11738089_at) / Fold change /veh C5orf56 (11738089_at) / RFU CYB561 (11721691_x_at) / Fold change /veh CYB561 (11721691_x_at) / RFU ANKRD19P (11752326_a_at) / Fold change /veh ANKRD19P (11752326_a_at) / RFU OR2T12 /// OR2T33 /// OR2T8 (11738714_s_at) / Fold change /veh OR2T12 /// OR2T33 /// OR2T8 (11738714_s_at) / RFU VCAN (11748164_a_at) / Fold change /veh VCAN (11748164_a_at) / RFU JSRP1 (11732532_at) / Fold change /veh JSRP1 (11732532_at) / RFU KRTAP10-11 (11738290_x_at) / Fold change /veh KRTAP10-11 (11738290_x_at) / RFU MYO3A (11730013_a_at) / Fold change /veh MYO3A (11730013_a_at) / RFU EBF3 (11725865_a_at) / Fold change /veh EBF3 (11725865_a_at) / RFU CAMK2N1 (11719241_x_at) / Fold change /veh CAMK2N1 (11719241_x_at) / RFU C5orf56 (11738088_a_at) / Fold change /veh C5orf56 (11738088_a_at) / RFU OLFML3 (11715873_a_at) / Fold change /veh OLFML3 (11715873_a_at) / RFU LOC100653217 /// NTM (11731650_a_at) / Fold change /veh LOC100653217 /// NTM (11731650_a_at) / RFU MAPK11 (11762145_a_at) / Fold change /veh MAPK11 (11762145_a_at) / RFU FIZ1 (11724087_x_at) / Fold change /veh FIZ1 (11724087_x_at) / RFU OASL (11726364_x_at) / Fold change /veh OASL (11726364_x_at) / RFU SOX15 (11748057_x_at) / Fold change /veh SOX15 (11748057_x_at) / RFU CD79A (11719716_a_at) / Fold change /veh CD79A (11719716_a_at) / RFU HIST1H1D (11736915_at) / Fold change /veh HIST1H1D (11736915_at) / RFU CASKIN2 (11723855_a_at) / Fold change /veh CASKIN2 (11723855_a_at) / RFU LOC730098 (11760151_x_at) / Fold change /veh LOC730098 (11760151_x_at) / RFU OR4N2 (11742367_at) / Fold change /veh OR4N2 (11742367_at) / RFU PRRT2 (11749266_a_at) / Fold change /veh PRRT2 (11749266_a_at) / RFU SNX32 (11753110_a_at) / Fold change /veh SNX32 (11753110_a_at) / RFU CDHR5 (11726645_a_at) / Fold change /veh CDHR5 (11726645_a_at) / RFU RCAN1 (11760418_a_at) / Fold change /veh RCAN1 (11760418_a_at) / RFU FAM167A (11723789_a_at) / Fold change /veh FAM167A (11723789_a_at) / RFU FAM26E (11764081_at) / Fold change /veh FAM26E (11764081_at) / RFU ISYNA1 (11749810_s_at) / Fold change /veh ISYNA1 (11749810_s_at) / RFU ACY1 (11761880_at) / Fold change /veh ACY1 (11761880_at) / RFU 11764098_at / Fold change /veh 11764098_at / RFU SAMD14 (11745864_x_at) / Fold change /veh SAMD14 (11745864_x_at) / RFU NPB (11741838_a_at) / Fold change /veh NPB (11741838_a_at) / RFU TMPRSS6 (11731388_a_at) / Fold change /veh TMPRSS6 (11731388_a_at) / RFU KRTAP10-2 (11738614_at) / Fold change /veh KRTAP10-2 (11738614_at) / RFU ARHGAP8 /// PRR5-ARHGAP8 (11727945_x_at) / Fold change /veh ARHGAP8 /// PRR5-ARHGAP8 (11727945_x_at) / RFU KRTAP5-7 /// NADSYN1 (11734609_at) / Fold change /veh KRTAP5-7 /// NADSYN1 (11734609_at) / RFU RASL12 (11751679_a_at) / Fold change /veh RASL12 (11751679_a_at) / RFU CDKN2B (11736163_a_at) / Fold change /veh CDKN2B (11736163_a_at) / RFU PRF1 (11729649_at) / Fold change /veh PRF1 (11729649_at) / RFU, ZNF638 /// ZNF638-IT1 / Fold change vs veh, ZNF638 /// ZNF638-IT1 / RFU, PANK3 / Fold change vs veh, PANK3 / RFU, SH3YL1 / Fold change vs veh, SH3YL1 / RFU, ZEB2 / Fold change vs veh, ZEB2 / RFU, NRIP1 / Fold change vs veh, NRIP1 / RFU, PTTG1IP / Fold change vs veh, PTTG1IP / RFU, CAPN2 / Fold change vs veh, CAPN2 / RFU, MED14 / Fold change vs veh, MED14 / RFU, SNORA58 / Fold change vs veh, SNORA58 / RFU, C1orf63 / Fold change vs veh, C1orf63 / RFU, LRRFIP1 / Fold change vs veh, LRRFIP1 / RFU, NDUFAF7 / Fold change vs veh, NDUFAF7 / RFU, SLC12A2 / Fold change vs veh, SLC12A2 / RFU, IBTK / Fold change vs veh, IBTK / RFU, ESF1 / Fold change vs veh, ESF1 / Fold change vs veh, TMEM50B / RFU, TAOK1 / Fold change vs veh, TAOK1 / RFU, ACBD3 / Fold change vs veh, ACBD3 / RFU, TMA16 / Fold change vs veh, TMA16 / RFU, RWDD3 / Fold change vs veh, RWDD3 / RFU, BCAT1 / Fold change vs veh, BCAT1 / RFU, EDEM3 / Fold change vs veh, EDEM3 / RFU, TMEM33 / Fold change vs veh, TMEM33 / RFU, WDR75 / Fold change vs veh, WDR75 / RFU, AHCTF1 / Fold change vs veh, AHCTF1 / RFU, TFRC / Fold change vs veh, TFRC / RFU, ZDHHC17 / Fold change vs veh, ZDHHC17 / RFU, NOM1 / Fold change vs veh, NOM1 / RFU, ARL8B / Fold change vs veh, ARL8B / RFU, ZBTB11 / Fold change vs veh, ZBTB11 / RFU, TAMM41 / Fold change vs veh, TAMM41 / RFU, KIAA1704 /// LOC100996395 / Fold change vs veh, KIAA1704 /// LOC100996395 / RFU, ING1 / Fold change vs veh, ING1 / RFU, TRMT61B / Fold change vs veh, TRMT61B / RFU, FUBP3 / Fold change vs veh, FUBP3 / RFU, TP53 / Fold change vs veh, TP53 / RFU, TNKS2 / Fold change vs veh, TNKS2 / RFU, ZFP14 / Fold change vs veh, ZFP14 / RFU, ACTR2 / Fold change vs veh, ACTR2 / RFU, PPP3R1 / Fold change vs veh, PPP3R1 / RFU, PIK3R1 / Fold change vs veh, PIK3R1 / RFU, HNRNPA1 / Fold change vs veh, HNRNPA1 / RFU, RNF170 / Fold change vs veh, RNF170 / RFU, ZNF28 / Fold change vs veh, ZNF28 / RFU, RNGTT / Fold change vs veh, RNGTT / RFU, OGT / Fold change vs veh, OGT / RFU, BRD1 / Fold change vs veh, BRD1 / RFU, MARS / Fold change vs veh, MARS / RFU, ZNF655 / Fold change vs veh, ZNF655 / RFU, FAHD1 / Fold change vs veh, FAHD1 / RFU, BDP1 / Fold change vs veh, BDP1 / RFU, LRRCC1 / Fold change vs veh, LRRCC1 / RFU, ARID1A / Fold change vs veh, ARID1A / RFU, ZNF146 / Fold change vs veh, ZNF146 / RFU, ZNF330 / Fold change vs veh, ZNF330 / RFU, GPN3 / Fold change vs veh, GPN3 / RFU, C9orf123 / Fold change vs veh, C9orf123 / RFU, N4BP2L2 / Fold change vs veh, N4BP2L2 / RFU, ARFIP1 / Fold change vs veh, ARFIP1 / RFU, FAM179B / Fold change vs veh, FAM179B / RFU, BCL10 / Fold change vs veh, BCL10 / RFU, UHRF1BP1L / Fold change vs veh, UHRF1BP1L / RFU, BET1 / Fold change vs veh, BET1 / RFU, CNOT2 / Fold change vs veh, CNOT2 / RFU, ZNF268 / Fold change vs veh, ZNF268 / Fold change vs veh, ZNF507 / RFU, DGCR2 / Fold change vs veh, DGCR2 / RFU, WDSUB1 / Fold change vs veh, WDSUB1 / Fold change vs veh, HSP90B1 /// MIR3652 / RFU, ADSS / Fold change vs veh, ADSS / RFU, GK / Fold change vs veh, GK / RFU, ZNF148 / Fold change vs veh, ZNF148 / RFU, TAF9 / Fold change vs veh, TAF9 / RFU, SLC1A5 / Fold change vs veh, SLC1A5 / RFU, SLMO2 / Fold change vs veh, SLMO2 / RFU, ABCC4 / Fold change vs veh, ABCC4 / RFU, LOC101060439 /// RAP1B / Fold change vs veh, LOC101060439 /// RAP1B / RFU, RFX7 / Fold change vs veh, RFX7 / RFU, GTPBP10 / Fold change vs veh, GTPBP10 / RFU, CNEP1R1 / Fold change vs veh, CNEP1R1 / RFU, BIVM-ERCC5 /// ERCC5 / Fold change vs veh, BIVM-ERCC5 /// ERCC5 / RFU, ILF3 / Fold change vs veh, ILF3 / RFU 11762660_at / Fold change /veh 11762660_at / RFU VCAN (11757783_s_at) / Fold change /veh VCAN (11757783_s_at) / RFU DDX43 (11728927_at) / Fold change /veh DDX43 (11728927_at) / RFU KRT8 (11758188_x_at) / Fold change /veh KRT8 (11758188_x_at) / RFU NKD1 (11759106_at) / Fold change /veh NKD1 (11759106_at) / RFU SRD5A1 (11742802_a_at) / Fold change /veh SRD5A1 (11742802_a_at) / RFU TPSAB1 /// TPSB2 (11721975_s_at) / Fold change /veh TPSAB1 /// TPSB2 (11721975_s_at) / RFU GSTM3 (11746129_a_at) / Fold change /veh GSTM3 (11746129_a_at) / RFU IL23R (11737362_x_at) / Fold change /veh IL23R (11737362_x_at) / RFU TMEM51 (11727254_a_at) / Fold change /veh TMEM51 (11727254_a_at) / RFU PIWIL2 (11732686_x_at) / Fold change /veh PIWIL2 (11732686_x_at) / RFU ORM1 (11744905_x_at) / Fold change /veh ORM1 (11744905_x_at) / RFU CCDC152 (11743942_at) / Fold change /veh CCDC152 (11743942_at) / RFU ECM1 (11717891_a_at) / Fold change /veh ECM1 (11717891_a_at) / RFU IL23R (11748794_a_at) / Fold change /veh IL23R (11748794_a_at) / RFU TNFAIP8L3 (11732012_x_at) / Fold change /veh TNFAIP8L3 (11732012_x_at) / RFU MBOAT4 (11741988_at) / Fold change /veh MBOAT4 (11741988_at) / RFU 11764193_at / Fold change /veh 11764193_at / RFU TMEM53 (11763286_at) / Fold change /veh TMEM53 (11763286_at) / RFU MAGEB2 (11727129_at) / Fold change /veh MAGEB2 (11727129_at) / RFU TMEM200A (11744735_a_at) / Fold change /veh TMEM200A (11744735_a_at) / RFU CCDC152 (11751479_a_at) / Fold change /veh CCDC152 (11751479_a_at) / RFU FAM211A (11726209_a_at) / Fold change /veh FAM211A (11726209_a_at) / RFU RGS16 (11746705_a_at) / Fold change /veh RGS16 (11746705_a_at) / RFU VCAN (11755009_s_at) / Fold change /veh VCAN (11755009_s_at) / RFU RHOB (11743442_s_at) / Fold change /veh RHOB (11743442_s_at) / RFU RGS16 (11720943_a_at) / Fold change /veh RGS16 (11720943_a_at) / RFU RGS16 (11720944_at) / Fold change /veh RGS16 (11720944_at) / RFU, VPS4B / Fold change vs veh, VPS4B / RFU, CREB1 / Fold change vs veh, CREB1 / RFU, DNAJC13 / Fold change vs veh, DNAJC13 / RFU, GNAQ / Fold change vs veh, GNAQ / RFU, CDK5R1 / Fold change vs veh, CDK5R1 / RFU, ZRANB3 / Fold change vs veh, ZRANB3 / RFU, CUL4A / Fold change vs veh, CUL4A / RFU, CCNY / Fold change vs veh, CCNY / RFU, UFL1 / Fold change vs veh, UFL1 / RFU, COG3 / Fold change vs veh, COG3 / RFU, DIAPH2 / Fold change vs veh, DIAPH2 / RFU, SKA2 / Fold change vs veh, SKA2 / RFU, AFF3 / Fold change vs veh, AFF3 / RFU, LMF1 / Fold change vs veh, LMF1 / RFU, IPO11 / Fold change vs veh, IPO11 / RFU, DFFB / Fold change vs veh, DFFB / RFU, FOXP1 / Fold change vs veh, FOXP1 / RFU, CARD8 / Fold change vs veh, CARD8 / RFU, STRN3 / Fold change vs veh, STRN3 / RFU, ADK / Fold change vs veh, ADK / RFU, RASSF2 / Fold change vs veh, RASSF2 / RFU, WIPF1 / Fold change vs veh, WIPF1 / RFU, LARP1B / Fold change vs veh, LARP1B / RFU, RASA1 / Fold change vs veh, RASA1 / RFU, RB1 / Fold change vs veh, RB1 / RFU, PPFIA1 / Fold change vs veh, PPFIA1 / RFU, MAT2A / Fold change vs veh, MAT2A / RFU, CCT5 / Fold change vs veh, CCT5 / RFU, WDR92 / Fold change vs veh, WDR92 / RFU, CUX1 / Fold change vs veh, CUX1 / RFU, TTC7A / Fold change vs veh, TTC7A / RFU, TMEM135 / Fold change vs veh, TMEM135 / RFU, DEPTOR / Fold change vs veh, DEPTOR / RFU, CPM / Fold change vs veh, CPM / RFU, DNAJB6 / Fold change vs veh, DNAJB6 / RFU, CACNA2D3 / Fold change vs veh, CACNA2D3 / RFU, DTX4 / Fold change vs veh, DTX4 / RFU, TFCP2 / Fold change vs veh, TFCP2 / RFU, GMCL1 /// GMCL1P1 / Fold change vs veh, GMCL1 /// GMCL1P1 / RFU, AEBP2 / Fold change vs veh, AEBP2 / RFU, SNHG1 /// SNORD22 /// SNORD25 /// SNORD26 /// SNORD27 /// SNORD28 /// SNORD29 /// SNORD31 / Fold change vs veh, SNHG1 /// SNORD22 /// SNORD25 /// SNORD26 /// SNORD27 /// SNORD28 /// SNORD29 /// SNORD31 / Fold change (Aza/veh), C12orf56 (ProbeSet 11735607_a_at) / Fold change (ACY-1035/veh), C12orf56 (ProbeSet 11735607_a_at) / Fold change (Aza/veh), FGFR1OP (ProbeSet 11751329_s_at) / Fold change (ACY-1035/veh), FGFR1OP (ProbeSet 11751329_s_at) / Fold change (Aza/veh), VPS36 (ProbeSet 11739960_a_at) / Fold change (ACY-1035/veh), VPS36 (ProbeSet 11739960_a_at) / RFU SYPL1 (11715823_x_at) / Fold change /veh SYPL1 (11715823_x_at) / RFU IGFBP7 (11715501_s_at) / Fold change /veh IGFBP7 (11715501_s_at) / RFU REEP3 (11722064_at) / Fold change /veh REEP3 (11722064_at) / RFU IGLL1 (11728026_x_at) / Fold change /veh IGLL1 (11728026_x_at): dose or concentration left out as unconfirmed
Settings: MV-4-11 cells, 48 hours

Structure (SMILES): Nc1ncn([C@@H]2O[C@H](CO)[C@@H](O)[C@H]2O)c(=O)n1 [azacitidine]
- Fold change /veh TMEM53 (11763286_at): 1.48
